Reference: article PMC5684143, “New melanocortin-like peptide of E. coli can suppress inflammation via the mammalian melanocortin-1 receptor (MC1R): possible endocrine-like function for microbes of the gut” (NPJ Biofilms and Microbiomes, 2017)

Experiments:
[1] = test system: RAW 264.7 cells; assay: LPS-induced TNF release by RAW 264.7 cells; type: cell-based, murine; settings: for TNF-accumulated (% of control): peptide 10^-12 M, LPS 10 ng/ml, TNF by ELISA at 6 h, LPS alone set at 100%, mean ± SEM
Method: (§1) Murine macrophage-like RAW 264.7 cells were obtained from American Type Culture Collection, and were grown in Dulbecco’s Modified Eagle’s Medium (DMEM, Life Technologies) containing 10% (vol/vol) heat-inactivated fetal bovine serum (FBS, Hyclone Lab. Inc.), penicillin 100 U/ml, and streptomycin 100 μg/ml (BioWhittaker Inc.). Cells were suspended in medium and incubated in 24-well or 48-well tissue-culture plates overnight in a humidified incubator (37 °C, 5% CO2). Growth medium was removed and replaced by Opti-MEM I serum-free medium (Life Technologies) overnight. In the experiments, cell monolayers were stimulated with HMGB1 or LPS, in the absence or presence of MECO-1 or alpha-MSH; cell-free supernatants were assayed for TNF by ELISA or HMGB1 by western blotting.
Concentrations of TNF and IL-6 were each determined using a commercially available enzyme-linked immunosorbent assay (ELISA) kit (R&D System Inc.) as previously described.[34] The levels of TNF or IL-6 were calculated with reference to standard curves.
Fig. 2 Cytokine-induced TNF release inhibited by MECO-1. a Lipopolysaccharide (LPS), derived from the cell wall of Gram-negative bacteria, is a TLR4 and TLR2 agonist. RAW 264.7 cells were treated with MECO-1 and LPS simultaneously and incubated overnight. Supernatants were tested for TNF with ELISA. b Poly I:C, synthetic double stranded RNA, is recognized by TLR3. RAW 264.7 cells were pre-treated with MECO-1 and then stimulated with Poly I:C. Supernatants were tested in ELISA by TNF. c Peptidoglycan (PGN), another TLR2 agonist, is ubiquitous in the cell wall of bacteria. RAW 264.7 cells were pre-treated with MECO-1 and then stimulated with PGN; after overnight stimulation, supernatants were harvested and tested for TNF ELISA. d HMGB-1. Each vertical bar is the mean of three experimental points, using HMGB-1 to induce TNF release. Three sets of three experiments were used for the measurement of inhibition
Fig. 5 a Bioactive analogues of MECO-1. Murine macrophage-like RAW 264.7 cells were incubated with lipopolysaccharide (LPS, 4 ng/ml) in the absence or presence of MECO-1 or BACTN or BACFR, synthetic peptides based on the C-termini of EF-G of Bacteroides thetaiotamicron and Bacteroides fragilis. EFG-2 refers to human mitochondrial EFG-2 (mtEFG2). For Bacteroides thetaiotamicron, we used a 38-mer consisting of residues 681–703 shown in Fig. 4c followed by 704–718 QDKLIKDFEAKQTEE. For Bacteroides fragilis, we used a 33-mer consisting of residues, 681–703 shown in Fig. 4c followed by 704–713 = QDKLIKDFES. At 6 h after stimulation, aliquots of cell-free medium were examined. In other experiments, the synthetic peptide based on human mitochondrial EF-G1 (mtEFG1) gave results indistinguishable from EF-G2 (data not shown). The precise structure of the synthetic peptides is indicated in the text (see section “Results” and Table 1). Shown is a representative experiment.

[2] = test system: Balb/C mice; assay: Lethal LPS endotoxin sepsis in mice, survival; type: in vivo; settings: two experiments pooled; peptide i.p. twice daily for 3 days; saline 0 of 19; alpha-MSH 5 of 20, MECO-1 15 of 30
From the text: Kaplan–Meier analysis was used to determine statistical significance of the differences in survival of mice. p ≦ 0.05 was considered significant. Values in the figures were expressed as mean(±)S.E.M. of two or three independent experiments, where each experimental point was derived from duplicates or triplicates. Student’s two-tailed t-test was used to compare the means between groups. p-value of 0.05 or less was considered statistically significant. The design (including sample size) of experiments in Figs. 2–7, and Table 1 followed closely the design of previous experiments by us and others. The results of prior experiments in our laboratory (both in vitro experiments and animal experiments) were used to decide sample size for each of the experiments shown.[37]–[41]
Fig. 6 MECO-1 rescues mice from lethal sepsis. a Endotoxin. Balb/C mice (males) were injected once intraperitoneally with LPS at a dose estimated to be an LD75. Immediately thereafter, the first doses of MECO-1 at 0.5 mg/kg (low dose), MECO-1 at 5 mg/kg (high dose), alpha-MSH at 5 mg/kg (high dose) or saline alone were administered intraperitoneally. Peptide or saline were given twice daily for 3 days for a total of six doses. Ten mice were in each group. Survival was monitored daily for 2 weeks. […] Animals were monitored for survival for 14 days. […]

[3] = test system: RAW 264.7 cells; assay: LPS-induced HMGB1 release by RAW 264.7 cells (western blot); type: cell-based, murine; settings: LPS 100 ng/ml, peptide 10^-10 M, 16-20 hrs, four independent experiments, P < 0.01
Method: as §1, with “In the experiments, cell monolayers were stimulated with HMGB1 or LPS, in the absence or presence of MECO-1 or alpha-MSH; cell-free supernatants were assayed for TNF by ELISA or HMGB1 by western blotting.” left out
The levels of HMGB1 in the culture medium or murine serum were measured by western immunoblotting as previously described.[30] […] The relative band intensity was quantified by using the NIH image 1.59 software. The levels of HMGB1 (expressed as % maximum effect) were calculated with reference to standard curves generated with purified rHMGB1 and expressed as mean ± SEM of four experiments.
Murine macrophage-like RAW 264.7 cells were incubated with LPS (100 ng/ml) in the absence or presence of MECO-1 or alpha-MSH at 10^-10 M. At 16-20 hrs after stimulation, aliquots of cell-free medium were examined. HMGB1 levels in the (conditioned) culture medium were expressed as mean ± SEM of four independent experiments with the peak level (obtained with LPS) set at 100%. […]

alpha-melanocyte-stimulating hormone [alpha-MSH]
peptide concentration at which attenuation of LPS-induced TNF-alpha release was observed ([1]; RAW 264.7 cells, overnight incubation, ELISA): 10^−15 M | TNF-accumulated (% of control) ([1]; agouti 0 pM, RAW 264.7 cells): 67.05 ± 10.2 % of control | TNF-accumulated (% of control) ([1]; agouti 10 pM, RAW 264.7 cells): 132.6 ± 4.9 % of control | TNF-accumulated (% of control) ([1]; agouti 10^3 pM, RAW 264.7 cells): 138.6 ± 12.4 % of control | TNF-accumulated (% of control) ([1]; agouti 10^5 pM, RAW 264.7 cells): 122.2 ± 4.3 % of control | inhibition of LPS-induced TNF-alpha release (valley) ([1]; at 10^−11–10^−10 M peptide, attenuation lost above 10^−10 M): ~90% | mice rescued from lethal dose of LPS endotoxin [2]: 25% | LPS-induced HMGB-1 secretion [3]: markedly reduced
